Read-outs that look alike come from different tables or passages of the source.
Assays:
cataract formation = experiment: Cataract formation on slit lamp biomicroscopy on day 31 (LOCS scale) in the rabbit uveitis study; conditions: day 31, slit lamp, FIG. 4

## C[C@]12C=CC(=O)C=C1CC[C@@H]1[C@@H]2[C@@H](O)C[C@@]2(C)[C@H]1CC[C@]2(O)C(=O)COP(=O)(O)O [Free PP, prednisolone phosphate]
Experimental uveitis; Day 1 after 1st intravitreal induction, before intervention (baseline), mean ± SD, sum of iris congestion (0-3), anterior chamber cells (0-4), flare (0-3)
  Combined anterior segment inflammatory score: 8.6 ± 0.5
Experimental uveitis; Day 3, at intervention (baseline, maximum inflammation)
  Combined anterior segment inflammatory score: 8.0 ± 0.7
Experimental uveitis; Day 4, one day after intervention (single 0.1 ml subconjunctival injection 4 mg/ml, or eye drops 4 drops per day)
  Combined anterior segment inflammatory score: 6.0 ± 0.7
Experimental uveitis; Day 8, 5 days after intervention, before 2nd intravitreal induction
  Combined anterior segment inflammatory score: 3.2 ± 0.4
Experimental uveitis; Day 9, 1 day after 2nd intravitreal induction
  Combined anterior segment inflammatory score: 8.0 ± 1.2
Experimental uveitis; Day 11, 3 days after rechallenge of intravitreal TB antigen
  Combined anterior segment inflammatory score: 7.0 ± 2.3
Experimental uveitis; Day 16, 2 weeks post treatment
  Combined anterior segment inflammatory score: 5.4 ± 1.3
Experimental uveitis; Day 24
  Combined anterior segment inflammatory score: 2.8 ± 0.4
Experimental uveitis; Day 31
  Combined anterior segment inflammatory score: 2.2 ± 1.3
Cataract formation
  Cataract formation (posterior subcapsular cataracts): trend towards higher rates

Source: patent publication US20190151236A1, “LIPOSOMAL CORTICOSTEROIDS FOR TOPICAL INJECTION IN INFLAMED LESIONS OR AREAS” (ENCELADUS PHARMACEUTICALS B.V., priority 2016, published 2019)
